According to publication PMC4057736, “In Vitro Antiprotozoal Activity of Abietane Diterpenoids Isolated from Plectranthus barbatus Andr” (International Journal of Molecular Sciences, 2014):
Entries after “also recorded” stand apart in the source; their conditions may differ. Read-outs that look alike come from different tables or passages of the source.

How the values were obtained:
[1] = test system: T. cruzi Tulahuen CL2 (benznidazole-sensitive); assay: Antitrypanosomal activity (Chagas), β-galactosidase readout on MRC-5 cells; assay type: cell-based, Trypanosoma cruzi; conditions: for IC50: Trypanosoma cruzi, MRC5, 168 h, read-out: T. cruzi IC50
Experimental: (§1) The integrated panel of microbial screens and standard screening methodologies were adopted as previously described. All assays were performed in triplicate, at the Laboratory of Microbiology, Parasitology and Hygiene at the University of Antwerp, Belgium. […] The selectivity antiprotozoal potential was assessed by simultaneous evaluation of cytotoxicity on a fibroblast (MRC-5) cell line.
(§2) About 1.5 × 10^4 trypomastigotes/well were added to each well and parasite growth was assessed after 72 h at 37 °C by adding resazurin [30]. […] The color reaction was read at 540 nm after 4 h and absorbance values were expressed as a percentage of the blank controls.

[2] = test system: Chloroquine-resistant P. falciparum 2/K 1-strain (erythrocytic schizonts); assay: Antiplasmodial activity (Malstat method); assay type: cell-based, Plasmodium falciparum; conditions: for IC50: Plasmodium falciparum, 72 h, read-out: P. falciparum IC50
Experimental: as §1
Chloroquine-resistant P. falciparum 2/K 1-strain was cultured in human erythrocytes O^+ at 37 °C under a low oxygen atmosphere (3% O2, 4% CO2, and 93% N2) in RPMI-1640, supplemented with 10% human serum. Infected human red blood cells (200 μL, 1% parasitaemia, 2% haematocrit) were added to each well and incubated for 72 h. After incubation, test plates were frozen at −20 °C. Parasite multiplication was measured by the Malstat method.

[3] = test system: Trypanosoma brucei Squib-427 strain (suramin-sensitive) trypomastigotes; assay: Antitrypanosomal activity, resazurin readout; assay type: cell-based; conditions: for IC50: Trypanosoma brucei, 72 h, read-out: T. brucei IC50; for T. brucei SI (selectivity index): versus MRC-5 cytotoxicity
Experimental: as §1, §2

[4] = test system: L.infantum MHOM/MA(BE)/67 amastigotes; assay: Antileishmanial activity, intracellular amastigotes in primary peritoneal mouse macrophages; assay type: cell-based, Leishmania infantum; conditions: for IC50: Leishmania infantum, Macrophage, 120 h, read-out: L. infantum IC50
Experimental: as §1
L.infantum MHOM/MA(BE)/67 amastigotes were collected from the spleen of an infected donor hamster and used to infect primary peritoneal mouse macrophages. To determine in vitro antileishmanial activity, 3 × 10^4 macrophages were seeded in each well of a 96-well plate. After 2 days outgrowth, 5 × 10^5 amastigotes/well were added and incubated for 2 h at 37 °C. Pre-diluted plant extracts were subsequently added and the plates were further incubated for 5 days at 37 °C and 5% CO2. Parasite burdens (mean number of amastigotes/macrophage) were microscopically assessed after Giemsa staining, and expressed as a percentage of the blank controls without plant extract.

[5] = Cytotoxicity assay (resazurin); assay type: cell-based; conditions: human, MRC-5 cells
Experimental: as §1
For the assay, 10^4 MRC-5 cells/well were seeded onto the test plates containing the pre-diluted sample and incubated at 37 °C and 5% CO2 for 72 h. Cell viability was assessed fluorimetrically after 4 h of addition of resazurin. Fluorescence was measured (excitation 550 nm, emission 590 nm) and the results were expressed as % reduction in cell viability compared to control.

[6] = test system: all protozoa species (P. falciparum, L. infantum, T. cruzi, T. brucei); assay: Antiprotozoal activity, statement pooled over all protozoa species tested; assay type: cell-based; conditions: for IC50: pooled over P. falciparum, L. infantum, T. cruzi, T. brucei, read-out: IC50 against all protozoa species
Experimental: as §1

[7] = Tulahuen CL2 on MRC-5 cells, 7 days
[8] = intracellular amastigotes in mouse macrophages, 5 days
[9] = chloroquine-resistant 2/K 1-strain
[10] = MRC-5 SV2 cells (fibroblast cell line)

SMILES	IC50 [1, 7] [µM]	IC50 ([3]; Squib-427 trypomastigotes) [µM]	IC50 [4, 8] [µM]	IC50 [2, 9] [µM]	IC50 at 72 h [5, 10] [µM]	IC50 [6] [µM]	other results
O=C(Cn1ccnc1[N+](=O)[O-])NCc1ccccc1 [Benznidazole, reference compound]	2.5 ± 0.6	–	–	–	–	–	–
CCN(CC)CCCC(C)Nc1ccnc2cc(Cl)ccc12 (stereo not shown) [Chloroquine, reference compound]	–	–	–	–	–	–	IC50 [2]: 0.04 ± 0.01 µM
CC(C)c1ccc2c(c1)CC[C@H]1C(C)(C)CCC[C@]21C [Compound (1), dehydroabietane]	> 237	> 237	> 237	124 ± 4.7	> 237	> 100	T. brucei SI (selectivity index) [3]: >1; L. infantum SI (selectivity index) ([4]; versus MRC-5 cytotoxicity): > 1; antiprotozoal activity (in words) ([6]; overall verdict over all protozoa tested): no activity against all protozoal strains; also recorded: no antiprotozoal potential; T. cruzi SI (selectivity index) ([1]; versus MRC-5 cytotoxicity): >1
CC(C)C1=CC2=C(O)C(O)=C3C(C)(C)CCC[C@]3(C)C2=C(O)C1=O [Compound (2), 5,6-didehydro-7-hydroxy-taxodone]	–	1.9 ± 0.4	–	–	96.2 ± 5.8	–	IC50 [4]: 25.7 ± 1.5 µM; IC50 [2]: 9.2 ± 0.6 µM; IC50 ([1]; TULAHUEN): 25.7 ± 1.5 µM
CC(C)C1=CC2=CC(=O)[C@H]3C(C)(C)CCC[C@]3(C)C2=C(O)C1=O [Compound (3), taxodione]	25.7 ± 2.3	9.8 ± 0.7	25.7 ± 2.3	8.5 ± 0.7	22.6 ± 1.3	6 to 31.6	T. brucei SI (selectivity index) [3]: 2.3; P. falciparum SI (selectivity index) ([2]; versus MRC-5 cytotoxicity): 2.6
CC(C)c1cc2c(c(O)c1O)C13CCCC(C)(C)C1CC2OC3 (stereo not shown) [Compound (4), 20-deoxocarnosol]	25.6 ± 1.2	6 ± 0.8	25.6 ± 1.2	11.1 ± 0.6	–	6 to 31.6	IC50 at 72 h [5]: 6 ± 0.3 µM
CC(C)c1cc2c(c(O)c1O)C13CCCC(C)(C)C1C(O)C2OC3 (stereo not drawn) [Compound (5), 6α,11,12,-trihydroxy-7β,20-epoxy-8,11,13-abietatriene]	24.4 ± 3.2	15.9 ± 1.4	24.4 ± 3.2	31.6 ± 1.9	5.7 ± 0.9	6 to 31.6	–
Nc1nc(N)nc(Nc2ccc([As]3SCC(CO)S3)cc2)n1 (stereo not shown) [Melarsoprol, reference compound]	–	–	–	–	–	–	IC50 [3]: 0.005 ± 0.001 µM
CCCCCCCCCCCCCCCCOP(=O)([O-])OCC[N+](C)(C)C [Miltefosine, reference compound]	–	–	2.4 ± 0.8	–	–	–	–
CC/C(=C(\c1ccccc1)c1ccc(OCCN(C)C)cc1)c1ccccc1 [Tamoxifen, reference compound]	–	–	–	–	10.5 ± 2.5	–	–
